Consider 1 molecule from patent US12637479B2, “Low energy gap small molecule material and organic optoelectronic device using the same” (Raynergy Tek Incorporation, priority 2021, dated 2026).

What all share (assay type): physicochemical
Data set [1] in a line: UV-Vis-NIR absorption spectra in chloroform solution. The procedure: (§1) Please refer to FIG. 2 to FIG. 4 and Table 1.
(§2) The highest occupied molecular orbital (HOMO) is calculated from HOMO=−|4.71÷E^xo−E^ferroncene|eV. The optical energy gap

A short description of data set [2]: UV-Vis-NIR absorption spectra in film, optical energy gap from absorption onset. The procedure:
as §1, §2
[formula] of the material is known from the absorption onset position
(§3) [formula] of the UV-Vis-NIR absorption spectrum in film state. The lowest unoccupied molecular orbital (LUMO) is calculated from LUMO=HOMO+Eg eV.

The nature of data set [3]: Energy levels by cyclic voltammetry (HOMO, LUMO). The procedure:
as §2, §3

A short description of data set [4]: Solubility measurement in o-xylene. The note with it: 8 mg sample in 1 mL o-xylene. From the text: Among them, “O” means complete dissolution, and “X” means incomplete dissolution. […] In the art, it is an industry trend to use non-halogenated green solvents. Green solvents generally come from renewable resources or can be degraded by soil organisms or other substances, have a short half-life, and are easily decayed into low-toxic and non-toxic substances. Therefore, green solvents are generally less harmful to biological health and the environment than general solvents that are easily chlorinated or highly toxic. Green solvents are also called environmentally friendly solvents. O-xylene is a non-halogen green solvent.

With `CCCCCCCCCCCCc1cc(-c2c3c(c(-c4cc(CCCCCCCCCCCC)c(-c5cc6c(s5)-c5sc(-c7sc(-c8c9c(c(-c%10cc(CCCCCCCCCCCC)c(/C=C%11\C(=O)c%12cc(F)c(F)cc%12C%11=C(C#N)C#N)s%10)c%10nn(CC(CC)CCCC)nc8%10)N=S=N9)cc7CCCCCCCCCCCC)cc5C6(c5cc(CCCCCC)cc(CCCCCC)c5)c5cc(CCCCCC)cc(CCCCCC)c5)s4)c4nn(CC(CC)CCCC)nc24)N=S=N3)sc1/C=C1\C(=O)c2cc(F)c(F)cc2C1=C(C#N)C#N` (centres unmarked) [Q4], in data set [1] (chloroform solution), the “λsoln^max” value is listed as 965 nm. Besides, the ε in data set [1] (maximum absorption coefficient) was 1.41 10^5 cm^−1 M^−1. In data set [2] (film), the “λfilm^max” value was 1029 nm and the “λfilm^onset” value is 1455 nm. Besides, the “Eg^opt” value in data set [2] (from absorption onset in film state) is given as 0.85 eV. In data set [3] (LUMO=HOMO+Eg), this molecule displayed an LUMO of −4.32 eV. This molecule also yielded an HOMO in data set [3] (cyclic voltammetry) of −5.17 eV. For the same molecule, in data set [4], the Solubility result is “◯”.
